Experimental data as given in patent US20090291088A1, “THERAPEUTIC COMBINATIONS OF ANTI-IGF-1R ANTIBODIES AND OTHER COMPOUNDS” (Biogen Idec MA Inc., priority 2008, published 2009).

Experiments:
IGF-1R = assay: Biacore analysis of the IGF-1R-Fc mutant library: M13-C06 Fab binding to receptor-Fc captured on M13-C06 chip; parameters: species or system human; conditions: M13-C06 Fab binding to mutant hIGF-1R-Fc captured on M13-C06 chip
Excerpt: Both mIGF-1R-Fc and hIGF-1R-Fc bind with high apparent affinity to the M13-C06, M14-C03, and M14-G11 sensorchip surfaces described above due to their highly multivalent nature induced by the incorporation of two separate homodimeric regions (IGF-1R and IgG1-Fc). To distinguish between the actual high affinity binding hIGF-1R-Fc to M13-C06 and the low affinity binding of mIGF-1R-Fc to M13-C06, the receptor-Fc fusions were captured on the M13-C06 sensorchip surface followed by an additional soluble M13-C06 Fab binding event. […] After, completion of the receptor-Fc loading step, flow rates were elevated to 5 μl/min. 10 nM, […], and 1 nM M13-C06 Fab concentrations were injected (50 μL) subsequent to the loading of each receptor-Fc construct. At the end of each sensorgram, the flow rate was elevated to 30 μl/min and the chip surface was regenerated by 2×10 μL injections of 0.1 M glycine, pH 2.

IGF-1R-Fc = assay: Surface plasmon resonance analysis of the IGF-1R-Fc mutant library (46 mutants); type: binding, human; conditions: for C06 binding: M13-C06 Fab; for C06 binding / G11 binding / C03 binding / P1E2 binding / αIR3 binding: KD relative to WT hIGF-1R-Fc; for G11 binding: M14-G11 Fab; for C03 binding: M14-C03 Fab; for P1E2 binding: P1E2 antibody; for αIR3 binding: αIR3 antibody
Procedure: Surface plasmon resonance (SPR) experiments were performed on a Biacore 3000 instrument set to 25° C. Both mIGF-1R-Fc and hIGF-1R-Fc bind with high apparent affinity to research grade CM5 sensorchip surfaces containing immobilized M13-C06, M14-C03, and M14-G11. The antibody sensorchip surfaces were prepared by injecting each antibody (diluted 100 μg/mL in 10 mM Acetate, pH 4.0) over EDC/NHS-activated sensorchip surfaces according to the standard protocol of the manufacturer. The ability of mIGF-1R-Fc to bind the antibody surfaces was the result of high apparent avidity of the protein. Both hIGF-1R-Fc and mIGF-1R-Fc proteins oligomerize due to the incorporation of two separate homodimeric regions (IGF-1R and IgG1-Fc). To distinguish between actual high affinity antibody binding to hIGF-1R-Fc and low affinity antibody binding to mIGF-1R-Fc, the receptor-Fc fusions were captured on the M13-C06 and M14-G11 sensorchip surfaces followed by an additional injection of antibody (αIR3 and P1E2) or antibody Fab (M13-C06, M14-C03, and M14-G11). […] After, completion of the receptor-Fc loading step, flow rates were elevated to 5 μl/min. Solutions containing M13-C06 Fab or αIR3 antibody at 10 nM, 3 nM, or 1 nM or M14-C03 Fab, M14-G11 Fab, or P1E2 antibody at 30 nM, 10 nM, or 3 nM were injected (50 μL) subsequent to the loading of each receptor-Fc construct. Dissociation was measured for 7 minutes after the antibody injections were complete. Finally, the flow rate was elevated to 30 μL/min and the chip surfaces were regenerated by 2×10 μL injections of 0.1 M glycine, pH 2.
M13-C06, M14-C03, M14-G11, P1E2 and αIR3 were assayed for their ability to interact with each of the mutant IGF-1R-Fc fusion constructs using surface plasmon resonance (Biacore). To remove the uncertain concentrations of the IGF-1R-Fc fusion constructs as a variable in the assay, each mutant construct was captured on a research grade CM5 chip containing ˜10,000 RU immobilized […], M14-C03, and M14-G11 antibody. To enhance our ability to visualize attenuations in antibody binding to the captured mutant IGF-1R constructs, we utilized enzymatically derived M13-C06, M14-C03, and M14-G11 antigen binding fragments (Fabs).

Substance	Biacore Relative RUmax (IGF-1R)	C06 binding (IGF-1R-Fc)	G11 binding (IGF-1R-Fc)	C03 binding (IGF-1R-Fc)	effect of mutation on M13-C06 and M14-C03 Fab binding (IGF-1R-Fc)	P1E2 binding (IGF-1R-Fc)	αIR3 binding (IGF-1R-Fc)
SD001: hIGF-1R-Fc mutant Y28A	0.6	NE (No effect (NE): measured KD within 2.5-fold of WT hIGF-1R-Fc)	NE (No effect (NE): measured KD within 2.5-fold of WT hIGF-1R-Fc)				
SD002: hIGF-1R-Fc mutant M156A	1.2	NE (No effect (NE): measured KD within 2.5-fold of WT hIGF-1R-Fc)	NE (No effect (NE): measured KD within 2.5-fold of WT hIGF-1R-Fc)				
SD003: hIGF-1R-Fc mutant T188F	1.0	NE (No effect (NE): measured KD within 2.5-fold of WT hIGF-1R-Fc)	NE (No effect (NE): measured KD within 2.5-fold of WT hIGF-1R-Fc)				
SD004: hIGF-1R-Fc mutant S210H_A211Q	0.8	NE (No effect (NE): measured KD within 2.5-fold of WT hIGF-1R-Fc)	NE (No effect (NE): measured KD within 2.5-fold of WT hIGF-1R-Fc)	NE (No effect (NE): measured KD within 2.5-fold of WT hIGF-1R-Fc)			
SD005: hIGF-1R-Fc mutant A217T	0.9	NE (No effect (NE): measured KD within 2.5-fold of WT hIGF-1R-Fc)	NE (No effect (NE): measured KD within 2.5-fold of WT hIGF-1R-Fc)	NE (No effect (NE): measured KD within 2.5-fold of WT hIGF-1R-Fc)			
SD101: hIGF-1R-Fc mutant S427L		NE (No effect (NE): measured KD within 2.5-fold of WT hIGF-1R-Fc)		NE (No effect (NE): measured KD within 2.5-fold of WT hIGF-1R-Fc)			
SD102: hIGF-1R-Fc mutant E459A S460A		S (Strong (S): binding to antibody was ablated by mutation)		S (Strong (S): binding to antibody was ablated by mutation)			
SD103: hIGF-1R-Fc mutant D461A V462T		S-most		S-most	no reactivity towards the M13-C06 and M14-C03 Fabs		
SD104: hIGF-1R-Fc mutant H464A		S (Strong (S): binding to antibody was ablated by mutation)		S (Strong (S): binding to antibody was ablated by mutation)			
SD105: hIGF-1R-Fc mutant T466L S467Y		W (Weak (W): measured KD between 2.5-10-fold higher than WT)		W (Weak (W): measured KD between 2.5-10-fold higher than WT)			
SD106: hIGF-1R-Fc mutant T468R		NE (No effect (NE): measured KD within 2.5-fold of WT hIGF-1R-Fc)		NE (No effect (NE): measured KD within 2.5-fold of WT hIGF-1R-Fc)			
SD107: hIGF-1R-Fc mutant T478R		NE (No effect (NE): measured KD within 2.5-fold of WT hIGF-1R-Fc)		W (Weak (W): measured KD between 2.5-10-fold higher than WT)			
SD108: hIGF-1R-Fc mutant H480E		S (Strong (S): binding to antibody was ablated by mutation)		S (Strong (S): binding to antibody was ablated by mutation)			
SD109: hIGF-1R-Fc mutant Y482A R483W		S (Strong (S): binding to antibody was ablated by mutation)		S (Strong (S): binding to antibody was ablated by mutation)			
SD110: hIGF-1R-Fc mutant E533H		W (Weak (W): measured KD between 2.5-10-fold higher than WT)		S (Strong (S): binding to antibody was ablated by mutation)			
SD111: hIGF-1R-Fc mutant I564T R565A		W (Weak (W): measured KD between 2.5-10-fold higher than WT)		W (Weak (W): measured KD between 2.5-10-fold higher than WT)			

Substance	Biacore Relative RUmax (IGF-1R)	C06 binding (IGF-1R-Fc)	G11 binding (IGF-1R-Fc)	C03 binding (IGF-1R-Fc)	effect of mutation on M13-C06 and M14-C03 Fab binding (IGF-1R-Fc)	P1E2 binding (IGF-1R-Fc)	αIR3 binding (IGF-1R-Fc)
SD112: hIGF-1R-Fc mutant K568A		NE (No effect (NE): measured KD within 2.5-fold of WT hIGF-1R-Fc)		W (Weak (W): measured KD between 2.5-10-fold higher than WT)			
SD113: hIGF-1R-Fc mutant E570A I571T		S (Strong (S): binding to antibody was ablated by mutation)		S (Strong (S): binding to antibody was ablated by mutation)			
SD201: hIGF-1R-Fc mutant D248A			S (Strong (S): binding to antibody was ablated by mutation)			W (Weak (W): measured KD between 2.5-10-fold higher than WT)	S (Strong (S): binding to antibody was ablated by mutation)
SD202: hIGF-1R-Fc mutant D250S			S (Strong (S): binding to antibody was ablated by mutation)			NE (No effect (NE): measured KD within 2.5-fold of WT hIGF-1R-Fc)	NE (No effect (NE): measured KD within 2.5-fold of WT hIGF-1R-Fc)
SD203: hIGF-1R-Fc mutant N254A			M (Medium (M): measured KD between 10-100-fold higher than WT)			S (Strong (S): binding to antibody was ablated by mutation)	M (Medium (M): measured KD between 10-100-fold higher than WT)
SD204: hIGF-1R-Fc mutant S257K			W (Weak (W): measured KD between 2.5-10-fold higher than WT)			M (Medium (M): measured KD between 10-100-fold higher than WT)	NE (No effect (NE): measured KD within 2.5-fold of WT hIGF-1R-Fc)
SD205: hIGF-1R-Fc mutant E259K S260N			W (Weak (W): measured KD between 2.5-10-fold higher than WT)			NE (No effect (NE): measured KD within 2.5-fold of WT hIGF-1R-Fc)	NE (No effect (NE): measured KD within 2.5-fold of WT hIGF-1R-Fc)
SD206: hIGF-1R-Fc mutant S263R			W (Weak (W): measured KD between 2.5-10-fold higher than WT)			NE (No effect (NE): measured KD within 2.5-fold of WT hIGF-1R-Fc)	W (Weak (W): measured KD between 2.5-10-fold higher than WT)
SD207: hIGF-1R-Fc mutant G265Y			W (Weak (W): measured KD between 2.5-10-fold higher than WT)			S (Strong (S): binding to antibody was ablated by mutation)	S (Strong (S): binding to antibody was ablated by mutation)
SD208: hIGF-1R-Fc mutant V301Y			NE (No effect (NE): measured KD within 2.5-fold of WT hIGF-1R-Fc)			NE (No effect (NE): measured KD within 2.5-fold of WT hIGF-1R-Fc)	W (Weak (W): measured KD between 2.5-10-fold higher than WT)
SD209: hIGF-1R-Fc mutant K306E			NE (No effect (NE): measured KD within 2.5-fold of WT hIGF-1R-Fc)			NE (No effect (NE): measured KD within 2.5-fold of WT hIGF-1R-Fc)	NE (No effect (NE): measured KD within 2.5-fold of WT hIGF-1R-Fc)
SD210: hIGF-1R-Fc mutant T308E			NE (No effect (NE): measured KD within 2.5-fold of WT hIGF-1R-Fc)			NE (No effect (NE): measured KD within 2.5-fold of WT hIGF-1R-Fc)	W (Weak (W): measured KD between 2.5-10-fold higher than WT)
SD211: hIGF-1R-Fc mutant K327N			NE (No effect (NE): measured KD within 2.5-fold of WT hIGF-1R-Fc)			NE (No effect (NE): measured KD within 2.5-fold of WT hIGF-1R-Fc)	W (Weak (W): measured KD between 2.5-10-fold higher than WT)
SD212: hIGF-1R-Fc mutant L379R			NE (No effect (NE): measured KD within 2.5-fold of WT hIGF-1R-Fc)			NE (No effect (NE): measured KD within 2.5-fold of WT hIGF-1R-Fc)	W (Weak (W): measured KD between 2.5-10-fold higher than WT)
SDWT: wild-type hIGF-1R-Fc	1.0						
